Results as given in patent publication US12350337B2, “Polymeric drug delivery conjugates and methods of making and using thereof” (UNIVERSITY OF UTAH RESEARCH FOUNDATION, priority 2019, dated 2025).
Where no end group is shown, it is not given here. [ ]: non-standard residue; d: D form.

What was measured:
[1] = tested on: 4T1 tumors; assay: 4T1 tumor growth, survival and endpoint tumor immune analysis (EPI, KT-1, α-CD8, α-PD-L1 combinations); format: in vivo, BALB/c mice
[2] = tested on: 4T1 tumors; assay: In vivo ICD induction and immune cell analysis after two doses; design: species or system BALB/c mice; conditions: Day 15
Experimental: (§1) Fluorescence intensities were normalized to the same scale. Black circles indicate the tumor. (B) In vivo tumor cell uptake of EPI after the mice were treated with either free EPI or KT-1 (10 mg/kg EPI equivalence) at 1, 4, 7 days post injection. Data represent n=5 independently analyzed mice/group. […] Blue: cell nuclei; Green: EPI; Red: CRT. […] Data are represented as box plots (whiskers, 5th to 95th percentile). n=4 for saline and EPI treatments, and n=6 for KT-1 treatment, from a representative experiment from two independent experiments. * P<0.05 by student's t-test.
Having shown tumor-targeted delivery of KT-1, KT-1's impact on inducing ICD that implicates calreticulin (CRT) expression and high-mobility group box 1 (HMGB1) release was examined. CRT exposed on the surfaces of immunogenically dying tumor cells sends dendritic cells (DCs) an “eat me” signal to facilitate phagocytosis by antigen-presenting cells (APCs), while released HMGB1 functions as the “danger” signal and stimulates optimal antigen presentation to T cells. […] In FIG. 3D-E, BALB/c mice bearing non-immunogenic 4T1 tumors, were given two intravenous doses (on Days 7 and 14 after tumor implantation) of treatments with saline, EPI or KT-1 (first EPI equivalence dose 10 mg/kg followed by second dose 5 mg/kg).
This could be the result of efficiently triggering ICD-associated signals in tumors. […]

[3] = tested on: 4T1 tumors; assay: 4T1 tumor therapy with PPA, MPPA and KT-1 combinations; format: in vivo, BALB/c mice
Description: (B) Individual tumor volume, (C) body weight change, and (D) survival rate in 4T1-tumor bearing BALB/c mice over time after different treatments (n=5-10). (E) Individual tumor volume measurement after naive control mice or KT-1→MPPA treated CR mice in (D) were subcutaneously re-challenged with 4T1 or CT26 cells (n=5). (F) The representative scatter plots of the percentage of tumor cell-reactive T cells (IFN-γ+CD8+) among PBMCs from KT-1→MPPA treated CR mice in (D) against 4T1 cells or CT26 cells (n=5). (G) Mice survival curve after re-challenge by i.v. injection of 4T1 cells after initial KT-1→MPPA treatment (n=5). (H) CD44+CD62L-memory effector CD8+ T cells in spleen after 4T1 cell i.v. re-challenge (n=5).

[4] = tested on: 4T1 tumors; assay: In vivo tumoral PD-L1 expression and tumor-infiltrating lymphocytes after KT-1 followed by PD-L1 blockade; design: species or system BALB/c mice; conditions: for tumoral PD-L1 expression: KT-1 Days 7 and 14, PD-L1 blockade Day 15, two days post blockade
Experimental: (§2) (A) Schematic illustration of inhibiting PD-L1 recycling by MPPA crosslinking. (B) Lysosome colocalization with α-PD-L1-Cy5 or Cy3-labeled MPPA (P-(PPA)14-Cy3) after 3 h treatments at 37° C. Blue: nuclei; Red: Cy3/Cy5; Green: lysosome. (C) Whole cell PD-L1 expression with or without lysosome hydrolysis inhibition by E-64. 4T1 cells were treated with α-PD-L1, PPA, or MPPA for 3 h in the absence (−) or presence (+) of E-64 cysteine protease inhibitor. Afterward, cells were further incubated in cell culture medium for another 24 h, prior to PD-L1 quantification. (D) Time-dependent recovery of surface PD-L1. […] (E) In vivo tumoral PD-L1 expression, and (F) representative flow cytometry analysis plots of CD3+CD8+CTLs and CD4+ Foxp3+ Tregs after KT-1 and MPPA combination treatment as indicated by arrows in (E). n=3 in (C) and (D), and n=5 in (E) and (F), from a representative experiment from two independent experiments.
To validate the PD-L1 depletion in vivo, mice bearing 4T1-tumor were treated with α-PD-L1, PPA, or MPPA on Day 15, following two doses of KT-1 treatment on Day 7 and 14 (FIG. 7E). Tumoral PD-L1 expression and tumor-infiltrating lymphocytes were studied two days post PD-L1 blockade.

[5] = tested on: LLC-1 Lewis lung carcinoma cells; assay: Metastatic LLC-1 Lewis lung carcinoma model
Experimental: (I) Survival rate of mice after indicated treatments (n=5). C57BL/6 mice were intravenously inoculated with 2×10^5 LLC-1 Lewis lung carcinoma cells on day 0. Then mice were treated as described in (A). (J) The fold increases in the percentage tumor cell-reactive T cells (IFN-γ+CD8+) among PBMCs from mice in (I) on Day 25 against LLC-1 cells. (K) CD44+CD62L-memory effector CD8+ T cells in spleen from mice in (I) on Day 25. (L) Tumor burden in lungs from mice in (I) on Day 25, depicted as lung weight and hematoxylin-eosin histology analysis of lung lobe sections.* P<0.05, n.s, not significant, one-way ANOVA with Tukey's multiple comparison test.

[6] = tested on: CT26 tumors; assay: Subcutaneous CT26 colon carcinoma model; format: in vivo, BALB/c mice
Description: Blue: cell nuclei; Green: EPI; Red: CRT.
Moreover, KT-1→MPPA further improved the anti-tumor efficacy, and outperformed KT-1→α-PD-L1 (20% complete tumor regression), leading to complete regression of established tumors in 60% of animals (FIG. 15A).

[7] = tested on: 4T1 cells; assay: Lysosome colocalization (confocal); format: cell-based, murine; conditions: 3 h at 37° C.
Experimental: as §2
(§3) Together, these findings established the polymer-facilitated crosslinking of surface PD-L1 as a potential therapeutic strategy to produce prolonged elimination of PD-L1, rather than the transient blocking afforded by standard anti-PD-L1 antibodies.

[8] = target: T1, PD-L1 (Mus musculus, UniProt Q9EP73); assay: Whole cell PD-L1 expression with or without E-64; format: cell-based, murine
T1 construct: Specificity of PPA towards PD-L1 on 4T1 cells; endogenous in cells; host or cells: 4T1 cells
Experimental: as §2, §3

[9] = target: T1, PD-L1; conditions: cited from earlier work
[10] = target: T1, PD-L1; assay: PPA specificity to PD-L1: inhibition of Cy5-labeled anti-PD-L1 antibody binding on 4T1 cells; design: species or system murine; conditions: 0.2 mM, pretreatment 1 h, co-incubation 1 h, 4° C.
Experimental: (A) The PD-1/PD-L1 interaction mediated by PPA from immune escape to cancer immunotherapy. (B) Specificity of PPA towards PD-L1 on 4T1 cells. Negative control: Cy5-labeled anti-CD20 mAb rituximab (RTX) incubation with 4T1 cells at 4° C. for 1 h; Positive control: Cy5-labeled anti-PD-L1 antibody incubation with 4T1 cells at 4° C. for 1 h; PPA: 0.2 mM PPA pretreatment for 1 h and co-incubation with Cy5-labeled anti-PD-L1 antibody for 1 h 4° C. […] (C) Synthesis scheme and characterization of Cy3-labeled HPMA copolymer-PPA conjugates with different PPA valences.
PD-L1 peptide antagonist (PPA), with the amino acid sequence shown in FIG. 8A, was reported to bind PD-L1 with high affinity, and further confirmed in FIG. 8B. To achieve multimeric PD-L1 crosslinking, PPA was grafted onto HPMA copolymer to generate the multivalent polymer-PPA conjugates. By varying the ratio of the reaction components, a panel of conjugates was prepared with different valences for subsequent evaluation. Three conjugates with Cy3 labeled backbone were prepared: P-(PPA)14-Cy3, P-(PPA)4.3-Cy3, P-(PPA)1.3-Cy3, with the subscript denotes the valence. Additionally, unlabeled MPPA for receptor depletion studies was prepared with degradable backbone.

[11] = tested on: 4T1 cells; assay: Internalization of surface bound P-(PPA)x-Cy3; format: cell-based, murine; conditions: 37° C., compared with low-valence P-(PPA)1.3-Cy3 and P-Cy3
Experimental: Then surface PD-L1 along with receptor-bound conjugates were removed by proteinase-K digestion (0.4 mg/mL, 20 min, 37° C.), and flow cytometry was used to measure the internalized conjugates. Experiments were conducted in triplicate.
as §3

[12] = tested on: 4T1 tumor; design: species or system BALB/c mice; conditions: mouse, in vivo, iv
Experimental: as §1
KT-1, a degradable diblock HPMA copolymer-EPI conjugate with narrow polydispersity, was synthesized via one step reversible addition-fragmentation chain transfer (RAFT) polymerization and characterized in FIG. 2B and the techniques provided in Yang et al., J. Controlled Release, 218 (2015) 36-44. KT-1 has long-lasting retention in tumors. […] In contrast, KT-1-Cy5 profoundly accumulated at tumor site, which peaked at 24 h and lasted for at least 196 h.

[13] = 3 weekly treatments, EPI equivalence 10 mg/kg then two doses 5 mg/kg
[14] = KT-1 Days 7 and 14, PD-L1 blockade Day 15

T1 sequence (Q9EP73 19-290): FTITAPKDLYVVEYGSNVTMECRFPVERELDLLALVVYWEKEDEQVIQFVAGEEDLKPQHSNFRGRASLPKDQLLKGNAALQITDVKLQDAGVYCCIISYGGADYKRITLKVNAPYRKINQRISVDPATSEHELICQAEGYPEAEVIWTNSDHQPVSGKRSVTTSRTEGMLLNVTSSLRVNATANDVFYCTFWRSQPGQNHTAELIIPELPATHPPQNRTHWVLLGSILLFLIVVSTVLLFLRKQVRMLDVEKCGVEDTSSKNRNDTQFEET

## COc1cccc2c1C(=O)c1c(O)c3c(c(O)c1C2=O)C[C@@](O)(C(=O)CO)C[C@@H]3O[C@H]1C[C@H](N)[C@@H](O)[C@H](C)O1 [EPI, Epirubicin]
[1]; [13]
  animal survival: limited effect
  tumor growth: limited effect on controlling tumor
[1]; endpoint of 3 weekly treatments
  tumor PD-L1 expression after chemotherapy: adaptively enriched
[2]
  frequency of CD11c+CD11b+Ly6c+CD86+ cells in tumor-draining lymph nodes: failed to generate the subset of CD11c+CD11b+Ly6c+ DCs

## MPPA: backbone-degradable HPMA copolymer grafted with multiple copies of PD-L1 peptide antagonist PPA, valence 12.6 (CNYSKPTDRQYHF)
[3]
  tumor growth / therapeutic efficacy: slightly better therapeutic efficacy than PPA
[4]; [14]
  tumor infiltration of CTLs: did not further enhance tumor infiltration of CTLs
[4]
  tumoral PD-L1 expression: further reduction in PD-L1 expression
[5]; C57BL/6 mice, i.v. LLC-1 cells
  median survival: 28 days
[5]; Day 25
  reactive IFN-γ+CD8+ T cells in PBMCs and CD8+CD62L-CD44+ effector memory T cells in spleen: none of the treatments with saline, α-PD-L1, or MPPA increased the number
[6]; CT26, KT-1 days 7, 14, 21, anti-PD-L1 therapy days 15, 22
  tumor growth: marginal effect in inhibiting tumor growth
[6]; Day 17, after KT-1 Days 7 and 14, one dose Day 15
  PD-L1 expression in CT26 tumors: more profound decrease in PD-L1 expression than α-PD-L1
[7]
  lysosome colocalization: substantial MPPA internalized into lysosome
[8]; 24 h post cell binding, without E-64
  PD-L1 depletion: depleted PD-L1 to a higher degree than α-PD-L1
[8]; E-64 cysteine protease inhibitor present
  PD-L1 depletion in the presence of E-64: alleviated MPPA-triggered PD-L1 depletion

## NYSKPTDRQYHF [PPA]
[3]
  tumor growth / therapeutic efficacy: barely delayed tumor growth
[4]; [14]
  Tregs in tumors: depleted Tregs
  tumor infiltration of CTLs: did not further enhance tumor infiltration of CTLs
[4]
  tumoral PD-L1 expression: downregulated PD-L1 expression
[9]
  binding to PD-L1 (reported): high affinity
[10]
  cell surface binding of anti-PD-L1 antibody after pretreatment: significantly inhibited

## P-(PPA)4.3-Cy3 ([dN][dY][dS][dK][dP][dT][dD][dR][dQ][dY][dH][dF]; also: conjugated to (PPA)4.3 and Cy3, places not given here)
[11]
  internalization rate: accelerated internalization rates

## P-(PPA)14-Cy3 ([dN][dY][dS][dK][dP][dT][dD][dR][dQ][dY][dH][dF]; also: conjugated to (PPA)14 and Cy3, places not given here)
[11]
  internalization rate: accelerated internalization rates

## cyanine 5 [Cy5]
[12]
  tumor retention (in words): rapidly eliminated from the tumor and barely detectable after 2 h post-injection
